From patent US10167262B2, “Herbicidal substituted 3-arylpyrazoles” (FMC CORPORATION, priority 2014, dated 2019)

Assays:
Test in all cases: Test E pre-/postemergence greenhouse test, plant response rating 0-100
Type in all cases: in vivo
[1] = tested on: Brazilian crabgrass (Digitaria horizontalis); settings: Postemergence, scale 0 to 100
How it was run: (§1)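 Rated visually against controls 14-21 days after treatment on a 0-100 scale (100 = complete control). Pre- and postemergence sprays used a non-phytotoxic solvent mixture with surfactant. Preemergence seeds were in silt loam; postemergence plants were in peat-based medium at the 1- to 4-leaf stage (2-18 cm).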

[2] = tested on: arrowleaf sida (Sida rhombifolia); settings: for Arrowleaf Sida plant response rating: Preemergence
How it was run: as §1

[3] = tested on: barnyardgrass (Echinochloa crus-galli); settings: scale 0 to 100; for Barnyardgrass plant response rating: Preemergence
How it was run: as §1

corn (Zea mays) = settings: scale 0 to 100; for Corn plant response rating: Preemergence
How it was run: as §1

[4] = tested on: dayflower (Virginia (VA) dayflower, Commelina virginica); settings: scale 0 to 100; for Dayflower, VA plant response rating: Preemergence
How it was run: as §1

[5] = tested on: fall panicum (Panicum dichotomiflorum); settings: scale 0 to 100; for Panicum, Fall plant response rating: Preemergence
How it was run: as §1

[6] = tested on: field bindweed (Convolvulus arvensis); settings: scale 0 to 100; for Field Bindweed plant response rating: Preemergence
How it was run: as §1

[7] = tested on: hairy beggarticks (Bidens pilosa); settings: scale 0 to 100; for Beggarticks plant response rating: Preemergence
How it was run: as §1

[8] = tested on: palmer pigweed (Amaranthus palmeri); settings: scale 0 to 100; for Pigweed, Palmer plant response rating: Preemergence
How it was run: as §1

[9] = tested on: sandbur (southern sandbur, Cenchrus echinatus); settings: scale 0 to 100; for Sandbur plant response rating: Preemergence
How it was run: as §1

soybean (Glycine max) = settings: scale 0 to 100; for Soybean plant response rating: Preemergence
How it was run: as §1

[10] = tested on: waterhemp (common waterhemp, Amaranthus rudis); settings: scale 0 to 100; for Waterhemp plant response rating: Preemergence
How it was run: as §1

## O=C(c1ccccc1)c1cn(S(=O)(=O)CC(F)(F)F)nc1-c1cc(Cl)cc(Cl)c1 [Compound 3]
[1]; 31 g ai/ha
  Plant response rating, Crabgrass, Brazil: 0
[1]; 62 g ai/ha
  Plant response rating, Crabgrass, Brazil: 0
[1]; 125 g ai/ha
  Plant response rating, Crabgrass, Brazil: 0
[1]; 250 g ai/ha
  Plant response rating, Crabgrass, Brazil: 0
[1]; 500 g ai/ha
  Plant response rating, Crabgrass, Brazil: 0
[2]; Postemergence, 31 g ai/ha, scale 0 to 100
  Plant response rating, Arrowleaf Sida: 85
[2]; Postemergence, 62 g ai/ha, scale 0 to 100
  Plant response rating, Arrowleaf Sida: 95
[2]; Postemergence, 125 g ai/ha, scale 0 to 100
  Plant response rating, Arrowleaf Sida: 90
[2]; Postemergence, 250 g ai/ha, scale 0 to 100
  Plant response rating, Arrowleaf Sida: 95
[2]; Postemergence, 500 g ai/ha, scale 0 to 100 (0 no effect, 100 complete control)
  Plant response rating, Arrowleaf Sida: 98
[2]; 31 g ai/ha, scale 0 to 100
  Arrowleaf Sida plant response rating: 0
[2]; 62 g ai/ha, scale 0 to 100
  Arrowleaf Sida plant response rating: 40
[2]; 125 g ai/ha, scale 0 to 100
  Arrowleaf Sida plant response rating: 70
[2]; 250 g ai/ha, scale 0 to 100
  Arrowleaf Sida plant response rating: 90
[2]; 500 g ai/ha, scale 0 to 100
  Arrowleaf Sida plant response rating: 98
[3]; Postemergence, 31 g ai/ha
  Plant response rating, Barnyardgrass: 0
[3]; Postemergence, 62 g ai/ha
  Plant response rating, Barnyardgrass: 0
[3]; Postemergence, 125 g ai/ha
  Plant response rating, Barnyardgrass: 0
[3]; Postemergence, 250 g ai/ha
  Plant response rating, Barnyardgrass: 0
[3]; Postemergence, 500 g ai/ha
  Plant response rating, Barnyardgrass: 0
[3]; 31 g ai/ha
  Barnyardgrass plant response rating: 0
[3]; 62 g ai/ha
  Barnyardgrass plant response rating: 0
[3]; 125 g ai/ha
  Barnyardgrass plant response rating: 0
[3]; 250 g ai/ha
  Barnyardgrass plant response rating: 0
[3]; 500 g ai/ha
  Barnyardgrass plant response rating: 0
Corn (Zea mays); Postemergence, 31 g ai/ha
  Plant response rating, Corn: 0
Corn (Zea mays); Postemergence, 62 g ai/ha
  Plant response rating, Corn: 0
Corn (Zea mays); Postemergence, 125 g ai/ha
  Plant response rating, Corn: 0
Corn (Zea mays); Postemergence, 250 g ai/ha
  Plant response rating, Corn: 0
Corn (Zea mays); Postemergence, 500 g ai/ha
  Plant response rating, Corn: 0
Corn (Zea mays); 31 g ai/ha
  Corn plant response rating: 0
Corn (Zea mays); 62 g ai/ha
  Corn plant response rating: 0
Corn (Zea mays); 125 g ai/ha
  Corn plant response rating: 0
Corn (Zea mays); 250 g ai/ha
  Corn plant response rating: 0
Corn (Zea mays); 500 g ai/ha
  Corn plant response rating: 0
[4]; Postemergence, 31 g ai/ha
  Plant response rating, Dayflower, VA: 0
[4]; Postemergence, 62 g ai/ha
  Plant response rating, Dayflower, VA: 0
[4]; Postemergence, 125 g ai/ha
  Plant response rating, Dayflower, VA: 0
[4]; Postemergence, 250 g ai/ha
  Plant response rating, Dayflower, VA: 0
[4]; Postemergence, 500 g ai/ha
  Plant response rating, Dayflower, VA: 0
[4]; 125 g ai/ha
  Dayflower, VA plant response rating: 0
[4]; 250 g ai/ha
  Dayflower, VA plant response rating: 0
[4]; 500 g ai/ha
  Dayflower, VA plant response rating: 0
[5]; Postemergence, 31 g ai/ha
  Plant response rating, Panicum, Fall: 0
[5]; Postemergence, 62 g ai/ha
  Plant response rating, Panicum, Fall: 0
[5]; Postemergence, 125 g ai/ha
  Plant response rating, Panicum, Fall: 0
[5]; Postemergence, 250 g ai/ha
  Plant response rating, Panicum, Fall: 0
[5]; Postemergence, 500 g ai/ha
  Plant response rating, Panicum, Fall: 0
[5]; 31 g ai/ha
  Panicum, Fall plant response rating: 0
[5]; 62 g ai/ha
  Panicum, Fall plant response rating: 0
[5]; 125 g ai/ha
  Panicum, Fall plant response rating: 0
[5]; 250 g ai/ha
  Panicum, Fall plant response rating: 0
[5]; 500 g ai/ha
  Panicum, Fall plant response rating: 0
[6]; Postemergence, 31 g ai/ha
  Plant response rating, Field Bindweed: 0
[6]; Postemergence, 62 g ai/ha
  Plant response rating, Field Bindweed: 0
[6]; Postemergence, 125 g ai/ha
  Plant response rating, Field Bindweed: 0
[6]; Postemergence, 250 g ai/ha
  Plant response rating, Field Bindweed: 0
[6]; Postemergence, 500 g ai/ha
  Plant response rating, Field Bindweed: 0
[6]; 31 g ai/ha
  Field Bindweed plant response rating: 0
[6]; 62 g ai/ha
  Field Bindweed plant response rating: 0
[6]; 125 g ai/ha
  Field Bindweed plant response rating: 0
[6]; 250 g ai/ha
  Field Bindweed plant response rating: 0
[6]; 500 g ai/ha
  Field Bindweed plant response rating: 65
[7]; Postemergence, 31 g ai/ha
  Plant response rating, Beggarticks: 60
[7]; Postemergence, 62 g ai/ha
  Plant response rating, Beggarticks: 95
[7]; Postemergence, 125 g ai/ha
  Plant response rating, Beggarticks: 98
[7]; Postemergence, 250 g ai/ha
  Plant response rating, Beggarticks: 98
[7]; Postemergence, 500 g ai/ha
  Plant response rating, Beggarticks: 98
[7]; 31 g ai/ha
  Beggarticks plant response rating: 0
[7]; 62 g ai/ha
  Beggarticks plant response rating: 0
[7]; 125 g ai/ha
  Beggarticks plant response rating: 25
[7]; 250 g ai/ha
  Beggarticks plant response rating: 25
[7]; 500 g ai/ha
  Beggarticks plant response rating: 30
[8]; Postemergence, 31 g ai/ha
  Plant response rating, Pigweed, Palmer: 40
[8]; Postemergence, 62 g ai/ha
  Plant response rating, Pigweed, Palmer: 50
[8]; Postemergence, 125 g ai/ha
  Plant response rating, Pigweed, Palmer: 75
[8]; Postemergence, 250 g ai/ha
  Plant response rating, Pigweed, Palmer: 90
[8]; Postemergence, 500 g ai/ha
  Plant response rating, Pigweed, Palmer: 75
[8]; 31 g ai/ha
  Pigweed, Palmer plant response rating: 0
[8]; 62 g ai/ha
  Pigweed, Palmer plant response rating: 20
[8]; 125 g ai/ha
  Pigweed, Palmer plant response rating: 65
[8]; 250 g ai/ha
  Pigweed, Palmer plant response rating: 50
[8]; 500 g ai/ha
  Pigweed, Palmer plant response rating: 100
[9]; Postemergence, 31 g ai/ha
  Plant response rating, Sandbur: 0
[9]; Postemergence, 62 g ai/ha
  Plant response rating, Sandbur: 0
[9]; Postemergence, 125 g ai/ha
  Plant response rating, Sandbur: 0
[9]; Postemergence, 250 g ai/ha
  Plant response rating, Sandbur: 0
[9]; Postemergence, 500 g ai/ha
  Plant response rating, Sandbur: 0
[9]; 31 g ai/ha
  Sandbur plant response rating: 0
[9]; 62 g ai/ha
  Sandbur plant response rating: 0
[9]; 125 g ai/ha
  Sandbur plant response rating: 15
[9]; 250 g ai/ha
  Sandbur plant response rating: 15
[9]; 500 g ai/ha
  Sandbur plant response rating: 90
Soybean (Glycine max); Postemergence, 31 g ai/ha
  Plant response rating, Soybean: 0
Soybean (Glycine max); Postemergence, 62 g ai/ha
  Plant response rating, Soybean: 0
Soybean (Glycine max); Postemergence, 125 g ai/ha
  Plant response rating, Soybean: 0
Soybean (Glycine max); Postemergence, 250 g ai/ha
  Plant response rating, Soybean: 0
Soybean (Glycine max); Postemergence, 500 g ai/ha
  Plant response rating, Soybean: 0
Soybean (Glycine max); 31 g ai/ha
  Soybean plant response rating: 0
Soybean (Glycine max); 62 g ai/ha
  Soybean plant response rating: 0
Soybean (Glycine max); 125 g ai/ha
  Soybean plant response rating: 0
Soybean (Glycine max); 500 g ai/ha
  Soybean plant response rating: 0
[10]; Postemergence, 31 g ai/ha
  Plant response rating, Waterhemp: 95
[10]; Postemergence, 62 g ai/ha
  Plant response rating, Waterhemp: 98
[10]; Postemergence, 125 g ai/ha
  Plant response rating, Waterhemp: 98
[10]; Postemergence, 250 g ai/ha
  Plant response rating, Waterhemp: 90
[10]; Postemergence, 500 g ai/ha
  Plant response rating, Waterhemp: 98
[10]; 31 g ai/ha
  Waterhemp plant response rating: 0
[10]; 62 g ai/ha
  Waterhemp plant response rating: 50
[10]; 125 g ai/ha
  Waterhemp plant response rating: 75
[10]; 250 g ai/ha
  Waterhemp plant response rating: 85
[10]; 500 g ai/ha
  Waterhemp plant response rating: 98

## COC(OC)(c1ccccc1)c1c[nH]nc1-c1cc(Cl)cc(Cl)c1 [Compound 13, 3-(3,5-dichlorophenyl)-4-(dimethoxyphenylmethyl)-1H-pyrazole]
[1]; Digitaria horizontalis, post-emergence, 125 g ai/ha, read-out: Plant response rating, Crabgrass, Brazil
  pest or weed control at 125 g/ha: 0%
[1]; Digitaria horizontalis, post-emergence, 500 g ai/ha, read-out: Plant response rating, Crabgrass, Brazil
  pest or weed control at 500 g/ha: 0%
[2]; Sida rhombifolia, post-emergence, Postemergence, 125 g ai/ha, scale 0 to 100
  pest or weed control at 125 g/ha: 80%
[2]; Sida rhombifolia, post-emergence, Postemergence, 500 g ai/ha, scale 0 to 100 (0 no effect, 100 complete control)
  pest or weed control at 500 g/ha: 90%
[3]; Echinochloa crus-galli, post-emergence, Postemergence, 125 g ai/ha
  pest or weed control at 125 g/ha: 15%
[3]; Echinochloa crus-galli, post-emergence, Postemergence, 500 g ai/ha
  pest or weed control at 500 g/ha: 40%
Corn (Zea mays); Zea mays, post-emergence, Postemergence, 125 g ai/ha
  Corn plant response rating (crop injury, 0 = no effect, 100 = complete kill) at 125 g/ha: 0%
Corn (Zea mays); Zea mays, post-emergence, Postemergence, 500 g ai/ha
  Corn plant response rating (crop injury, 0 = no effect, 100 = complete kill) at 500 g/ha: 0%
[4]; Commelina virginica, post-emergence, Postemergence, 125 g ai/ha
  pest or weed control at 125 g/ha: 10%
[4]; Commelina virginica, post-emergence, Postemergence, 500 g ai/ha
  pest or weed control at 500 g/ha: 10%
[5]; Panicum dichotomiflorum, post-emergence, Postemergence, 125 g ai/ha
  pest or weed control at 125 g/ha: 0%
[5]; Panicum dichotomiflorum, post-emergence, Postemergence, 500 g ai/ha
  pest or weed control at 500 g/ha: 0%
[6]; Convolvulus arvensis, post-emergence, Postemergence, 125 g ai/ha
  pest or weed control at 125 g/ha: 0%
[6]; Convolvulus arvensis, post-emergence, Postemergence, 500 g ai/ha
  pest or weed control at 500 g/ha: 10%
[7]; Bidens pilosa, post-emergence, Postemergence, 125 g ai/ha
  pest or weed control at 125 g/ha: 60%
[7]; Bidens pilosa, post-emergence, Postemergence, 500 g ai/ha
  pest or weed control at 500 g/ha: 90%
[8]; Amaranthus palmeri, post-emergence, Postemergence, 125 g ai/ha
  pest or weed control at 125 g/ha: 85%
[8]; Amaranthus palmeri, post-emergence, Postemergence, 500 g ai/ha
  pest or weed control at 500 g/ha: 95%
[9]; Cenchrus echinatus, post-emergence, Postemergence, 125 g ai/ha
  pest or weed control at 125 g/ha: 0%
[9]; Cenchrus echinatus, post-emergence, Postemergence, 500 g ai/ha
  pest or weed control at 500 g/ha: 0%
Soybean (Glycine max); Glycine max, post-emergence, Postemergence, 125 g ai/ha
  plant injury at 125 g/ha: 0%
Soybean (Glycine max); Glycine max, post-emergence, Postemergence, 500 g ai/ha
  plant injury at 500 g/ha: 0%
[10]; Amaranthus tuberculatus, post-emergence, Postemergence, 125 g ai/ha
  pest or weed control at 125 g/ha: 90%
[10]; Amaranthus tuberculatus, post-emergence, Postemergence, 500 g ai/ha
  pest or weed control at 500 g/ha: 95%
